Test results from patent EP4685152A1, “PEPTIDE BINDING TO LAG-3 AND USE THEREOF” (Kyungpook National University Industry-Academic Cooperation …, priority 2023, dated 2024).

What was measured:
[1] = molecular target: T1, recombinant LAG-3 protein (Homo sapiens, UniProt P18627); test: Pull-down with biotin-peptide and streptavidin beads, immunoblotting; recombinant protein; assay type: binding; details: biotin-labeled peptides, compared to the control group
T1 construct: purchased Acro Biosystems
T1 sequence (P18627 23-450 limits assumed): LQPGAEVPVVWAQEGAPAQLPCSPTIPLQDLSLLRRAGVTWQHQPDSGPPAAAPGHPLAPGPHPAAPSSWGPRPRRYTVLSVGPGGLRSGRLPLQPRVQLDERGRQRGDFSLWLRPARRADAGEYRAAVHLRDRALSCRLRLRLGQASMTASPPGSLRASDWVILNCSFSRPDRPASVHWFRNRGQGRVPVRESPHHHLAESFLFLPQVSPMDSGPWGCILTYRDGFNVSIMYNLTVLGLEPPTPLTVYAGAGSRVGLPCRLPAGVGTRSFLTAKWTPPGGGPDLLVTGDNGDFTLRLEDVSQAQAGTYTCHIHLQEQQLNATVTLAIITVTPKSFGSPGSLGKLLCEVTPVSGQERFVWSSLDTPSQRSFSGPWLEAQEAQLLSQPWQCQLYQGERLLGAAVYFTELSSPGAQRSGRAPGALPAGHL
Method: (§1) The binding specificity of the LAG-3 binding peptide was measured by pull-down analysis. After pull-down with LAG-3 binding peptide using human recombinant LAG-3 protein, it was applied to immunoblotting using LAG-3 antibody. In the same manner, cell lysates with LAG-3 overexpressed were […] using human LAG-3 plasmid DNA and then subjected to immunoblotting using LAG-3 antibodies.

[2] = molecular target: T2, cell lysate overexpressing LAG-3 (Homo sapiens, UniProt P18627); test: Pull-down with biotin-peptide and streptavidin beads, immunoblotting; cell lysate; assay type: binding; details: cell lysate overexpressing LAG-3, biotin-labeled peptides; compared to the control group
T2 construct: GFP; host or cells: HEK-293T
T2 sequence (P18627 23-525): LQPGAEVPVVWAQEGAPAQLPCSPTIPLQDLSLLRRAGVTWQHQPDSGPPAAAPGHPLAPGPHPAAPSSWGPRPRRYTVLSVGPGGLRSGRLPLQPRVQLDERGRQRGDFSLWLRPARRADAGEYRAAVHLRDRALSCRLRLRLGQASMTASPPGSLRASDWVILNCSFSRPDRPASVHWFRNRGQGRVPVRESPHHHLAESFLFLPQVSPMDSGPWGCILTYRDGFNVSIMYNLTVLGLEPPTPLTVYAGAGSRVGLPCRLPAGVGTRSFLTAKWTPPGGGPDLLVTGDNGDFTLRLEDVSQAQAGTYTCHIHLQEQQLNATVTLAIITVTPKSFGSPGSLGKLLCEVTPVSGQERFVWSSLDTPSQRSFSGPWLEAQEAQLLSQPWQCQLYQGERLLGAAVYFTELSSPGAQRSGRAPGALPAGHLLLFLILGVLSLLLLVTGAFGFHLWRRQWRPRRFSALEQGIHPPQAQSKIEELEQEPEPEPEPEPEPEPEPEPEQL
Method: as §1

LAG-3 [3] = molecular target: T3, LAG-3 (Homo sapiens, UniProt P18627); test: Competitive binding with LAG-3 blocking antibody, flow cytometry on stimulated Jurkat T cells; assay type: cell-based; details: LAG-3 blocking antibody 10 µg/ml first, then peptide 10 µM, compared to untreated control group
T3 sequence (P18627 23-525): T2 sequence (P18627 23-525)
Method: Similarly, for flow cytometry, Jurkat T cells (1×10^6) stimulated with PMA (50 ng/ml), ionomycin (1 µg/ml), and CQ (100 µM) were harvested and suspended in culture medium containing 1% BSA for 1 hour at room temperature to block nonspecific binding. Afterwards, cells were blocked with human LAG-3 blocking antibody (10 µg/ml) at 4°C for 30 minutes and then reacted with fluorescein isothiocyanate-conjugated peptide at a concentration of 10 µM at 4°C for 1 hour. After washing several times, 300 µl of cell suspension suspended in phosphate buffer was applied to Attune NxT flow cytometry (Thermo Fisher Scientific).

Jurkat T cells = test: T-cell activation assay (IL-2 ELISA); assay type: cell-based, human; details: stimulated Jurkat T cells under co-culture of HepG2 cells, HepG2 cell culture medium, or recombinant FGL-1 (10 µg/ml); peptide 50 µM, antibody 10 µg/ml; 24 hours
Method: Jurkat T cells (1×10^6) were inoculated into a T25 flask and stimulated for 24 hours using PMA (50 ng/ml), ionomycin (1 µg/ml), and CQ (100 µM). HepG2 cells (5×10^3) were inoculated in a 96-well plate to induce secretion of FGL-1 for 48 hours. To co-culture the two types of cells, stimulated Jurkat T cells (2.5×10^4) were mixed with HepG2 at a ratio of 1:5. Similarly, for indirect co-culture, stimulated Jurkat T cells (2.5×10^4) were mixed with HepG2 cell culture medium. Finally, to observe the direct effect, stimulated Jurkat T cells (2.5×10^4) were treated with recombinant FGL-1 (10 µg/ml) protein. […] Afterwards, culture was carried out for an additional 24 hours for reaction. Control peptides were also used for comparison. After each culture time, the supernatant was harvested, and IL-2 secretion was measured using an ELISA kit for measuring human IL-2.
Investigation was made on whether the interaction between FGL-1 secreted from HepG2 hepatoma cells and LAG-3 of T cells inhibits T cell activity and, if so, whether it is blocked by a LAG-3 binding peptide. For this purpose, in the first experiment, Jurkat T cells were cultured with stimulation for 24 hours using PMA, ionomycin, and CQ. HepG2 cells were cultured in 96-well plates for 48 hours for FGL-1 secretion. […]

LAG-3 [4] = molecular target: T3, LAG-3; test: Competitive binding with LAG-3 blocking antibody, immunofluorescence microscopy on LAG-3-transfected cells; assay type: cell-based; parameters: GFP; host or cells: HEK-293T; details: LAG-3-transfected Hek-293T cells; LAG-3 blocking antibody 10 µg/ml first, then peptide 25 µM; compared to group without antibody
Method: (§2) Hek-293T cells (1.25×10^5) were seeded in 4-well chamber slides and transfected with human LAG-3 plasmid, and the next day, the cells were washed twice with phosphate buffer and reacted with 1% BSA at room temperature for 1 hour to reduce nonspecific binding. Afterwards, cells were blocked with human LAG-3 blocking antibody (10 µg/ml) at 4°C for 30 minutes, and then reacted with TAMRA-conjugated peptide at a concentration of 25 µM at 4°C for 1 hour. After fixation, cells were washed, counterstained with DAPI, treated with an anti-fade reagent to preserve fluorescence, and analyzed using a confocal microscope (Nanoscope System).

LAG-3 [5] = molecular target: T3, LAG-3; test: Phage binding ELISA on LAG-3-transfected or non-transfected cells; assay type: cell-based; parameters: GFP; host or cells: HEK-293T; details: phage clone 3 among 13 selected phage clones; transfected or non-transfected Hek-293T cells; OD 450 nm
Method: Hek-293T cells (2.5×10^4) were seeded in a 96-well plate and transfected with LAG-3 plasmid. Culture was performed for 48 hours. Non-transfected Hek-293T cells were used as a control group. Plates were blocked with 10 mg/ml BSA for 1 hour at room temperature. After washing the wells six times with Tris-buffered saline-Tween 20 (0.1%), 100 µl of phage clones (1×10^9 pfu/well) were added and reacted at 4°C for 1 hour. After washing, horse-radish peroxidase (HRP)-conjugated T7 tail fiber antibody (diluted 1:10,000 in blocking buffer) was added and reacted at room temperature for 1 hour. After washing the plate six more times, a substrate consisting of 3,3',5,5'-tetramethylbenzidine was added and reacted at room temperature for 10-15 minutes. The reaction was finally stopped by adding 100 µl of 2 M H2SO4 (stop solution), and the plates were analyzed at 450 nm with a microplate reader.

[6] = system: MC38 mouse colon cancer cells; test: In-vivo antitumor therapy, syngeneic MC38 mouse tumor model; parameters: species or system C57BL/6 mice; details: compared to control group and phosphate buffer group; 10 mg/kg; peptide intravenously 6 times, antibody intraperitoneally 3 times
Method: 6-8-week-old C57BL/6 mice were purchased. Mice were bred and kept under the guidelines of the Institutional Animal Care and Use Committee (IACUC) of Kyungpook National University (2023-0184). Tumors were injected into the lower right flank of mice. For in-vivo antitumor treatment, mice were randomly selected and grouped when tumor size reached approximately 100-150 mm^3. Thereafter, the peptide was injected intravenously three times a week for two weeks at a dose of 10 mg/kg, and similarly the antibody was injected intraperitoneally three times at the same dose. Tumor size was measured using a digital caliper, and tumor volume was calculated using the formula (V = length × width^2 × 0.52) (where length (L) is the longest dimension, and width (W) is the shortest dimension, parallel to the mouse body). All mice were checked for ulcer severity after treatment, treatment was terminated when the tumor size reached approximately 3000 mm^3, and the mice were sacrificed.
To identify the anticancer effect in a syngeneic mouse tumor model, LAG-3 binding peptide was administered alone or in combination with PD-L1 antibody to mice in which tumors were induced using MC38 mouse colon cancer cells (FIG. 9a). […]

LAG-3 [7] = molecular target: T3, LAG-3; test: Peptide binding to LAG-3-transfected cells by immunofluorescence microscopy; assay type: cell-based; parameters: GFP; host or cells: HEK-293T; details: red fluorescent (TAMRA) peptide 25 µM; LAG-3-transfected Hek-293T cells compared to non-transfected control cells
Method: as §2, with “slides,” for “slides and”, “[…]. Non-transfected cells were used as a control group. The” for “the”, “day,” for “day, the”, “binding of peptides.” for “binding.”, “were” for “were blocked with human LAG-3 blocking antibody (10 µg/ml) at 4°C for 30 minutes, and then”
(§3) To determine the degree of binding of the peptide to LAG-3, a peptide labeled with a red fluorescent reagent was synthesized and treated in Hek-293T cells transfected with LAG-3 followed by observation under an immunofluorescence microscope. Non-transfected cells were used as a control group. Meanwhile, Jurkat T cells stimulated with PMA, ionomycin, and CQ to increase expression of LAG-3 were treated with the peptide, and binding was observed using a flow cytometer. Unstimulated Jurakt T cells were used as a control group.

LAG-3 [8] = molecular target: T3, LAG-3; test: Peptide binding to stimulated Jurkat T cells by flow cytometry; assay type: cell-based; details: FITC-labeled peptide 10 µM; Jurkat T cells stimulated with PMA, ionomycin, CQ compared to unstimulated control cells
Method: For flow cytometry, Jurkat T cells (1×10^6) stimulated with PMA (50 ng/ml), ionomycin (1 µg/ml), and CQ (100 µM) were harvested and suspended in culture medium containing 1% BSA for blocking at room temperature for 1 hour. Afterwards, the cells were further reacted with fluorescein isothiocyanate-labeled LAG-3 binding peptide (10 µM) at 4°C for 1 hour. After washing several times, 300 µl of cell suspension suspended in phosphate buffer was applied to Attune NxT flow cytometry (Thermo Fisher Scientific).
as §3

CC(C)C[C@H](NC(=O)[C@@H](NC(=O)[C@H](CO)NC(=O)[C@@H](N)CS)C(C)C)C(=O)N[C@@H](CC(N)=O)C(=O)N[C@@H](C)C(=O)N[C@@H](CO)C(=O)NCC(=O)N[C@@H](CS)C(=O)O [LAG3Pep-2]
detection of LAG-3 protein after pull-down [1]: more detection of LAG-3 protein
detection of LAG-3 proteins after pull-down [2]: more LAG-3 proteins were detected
binding of peptide after LAG-3 blocking antibody (LAG-3 [3]): reduced
IL-2 secretion (Jurkat T cells): significantly increased
binding strength of peptide after LAG-3 blocking antibody (LAG-3 [4]): reduced
cell binding by phage binding ELISA (LAG-3 [5]): highest level of binding
cancer growth, single administration [6]: partially inhibited
binding of peptide to LAG-3 expressing cells (LAG-3 [7]): bind more strongly
binding of peptide to stimulated Jurkat T cells (LAG-3 [8]): more LAG-3Pep-1 and LAG-3Pep-2 peptides were bound

CC[C@H](C)[C@@H]1NC(=O)[C@@H](N)CSSC[C@@H](C(=O)O)NC(=O)[C@H](C(C)C)NC(=O)[C@H](C)NC(=O)[C@@H]2CCCN2C(=O)[C@H](CC(=O)O)NC(=O)[C@H](CC(N)=O)NC(=O)[C@H](CCCNC(=N)N)NC1=O [LAG3Pep-1]
binding of peptide after LAG-3 blocking antibody (LAG-3 [3]): reduced
binding strength of peptide after LAG-3 blocking antibody (LAG-3 [4]): reduced
binding of peptide to LAG-3 expressing cells (LAG-3 [7]): bind more strongly
binding of peptide to stimulated Jurkat T cells (LAG-3 [8]): more LAG-3Pep-1 and LAG-3Pep-2 peptides were bound
